In patent US8263606B2 (Xenon Pharmaceuticals Inc., priority 2008, dated 2012):

How the values were obtained:
CYP3A4 = CYP3A4 (Homo sapiens, UniProt P08684); assay: Cytochrome P450 (CYP450) Inhibition Assay, CYP3A4 (Vivid fluorescence, BOMCC substrate); conditions: human, P450 Baculosomes (recombinant CYP3A4), probe BOMCC (Vivid substrate)
Chain of CYP3A4 (P08684 whole entry): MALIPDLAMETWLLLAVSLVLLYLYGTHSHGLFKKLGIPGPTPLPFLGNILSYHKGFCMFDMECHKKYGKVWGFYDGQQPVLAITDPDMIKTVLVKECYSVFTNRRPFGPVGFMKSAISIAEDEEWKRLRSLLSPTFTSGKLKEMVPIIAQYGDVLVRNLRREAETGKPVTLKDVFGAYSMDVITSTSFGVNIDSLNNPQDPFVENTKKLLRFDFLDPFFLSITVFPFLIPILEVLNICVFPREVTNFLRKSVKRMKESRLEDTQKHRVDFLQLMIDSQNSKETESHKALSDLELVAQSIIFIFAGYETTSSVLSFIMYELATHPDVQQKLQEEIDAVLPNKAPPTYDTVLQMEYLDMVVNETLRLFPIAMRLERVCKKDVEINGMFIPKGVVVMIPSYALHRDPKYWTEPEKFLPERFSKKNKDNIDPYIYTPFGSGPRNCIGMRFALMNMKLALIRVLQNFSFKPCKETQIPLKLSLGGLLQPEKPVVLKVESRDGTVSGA

| inhibition at 10 µM (CYP3A4) [%] | melting point [°C] | Structure (SMILES) |
| --- | --- | --- |
| < 50 | 137 to 139 | O=C1N(C[C@H]2COCCO2)c2ccccc2C12COc1cc3c(cc12)OCCCO3 (stereo partly drawn) [Example 8.13, 1′-[(2S)-1,4-dioxan-2-ylmethyl]-3,4-dihydro-2H-spiro[furo[2,3-h][1,5]benzodioxepine-9,3′-indol]-2′(1′H)-one] |
| < 50 | 297 to 299 | CN1C(=O)C2(COc3cc4c(cc32)OCCO4)c2c(C(=O)O)cccc21 (stereo not drawn) [Example 11.77, 1′-methyl-2′-oxo-1′,2,2′,3-tetrahydrospiro[furo[2,3-g][1,4]benzodioxine-8,3′-indole]-4′-carboxylic acid] |
| > 50 | 228 to 229 | CN1C(=O)C2(COc3cc4c(cc32)OCCO4)c2c(-c3ccc4ccc(=O)oc4c3)cccc21 (stereo not drawn) [Example 16.15, 1′-methyl-4′-(2-oxo-2H-chromen-7-yl)-2,3-dihydrospiro[furo[2,3-g][1,4]benzodioxine-8,3′-indol]-2′(1′H)-one] |
| < 50 | 256 to 258 | CN1C(=O)C2(COc3cc4c(cc32)OCCO4)c2c1cccc2N1CCCC1=O (stereo not drawn) [Example 16.16, 1′-methyl-4′-(2-oxopyrrolidin-1-yl)-2,3-dihydrospiro[furo[2,3-g][1,4]benzodioxine-8,3′-indol]-2′(1′H)-one] |
| < 50 | 246 to 249 | CN1C(=O)C2(COc3cc4c(cc32)OCCO4)c2c(N3CCOCC3)cccc21 (stereo not drawn) [Example 16.17, 1′-methyl-4′-morpholin-4-yl-2,3-dihydrospiro[furo[2,3-g][1,4]benzodioxine-8,3′-indol]-2′(1′H)-one] |
| < 50 | 212 to 214 | CN1C(=O)C2(COc3cc4c(cc32)OCCO4)c2c1cccc2-n1ccccc1=O (stereo not drawn) [Example 16.18, 1′-methyl-4′-(2-oxopyridin-1(2H)-yl)-2,3-dihydrospiro[furo[2,3-g][1,4]benzodioxine-8,3′-indol]-2′(1′H)-one] |
| < 50 | 252 to 254 | CN1C(=O)C2(COc3cc4c(cc32)OCCO4)c2c(N)cccc21 (stereo not drawn) [Example 16.19, 4′-amino-1′-methyl-2,3-dihydrospiro[furo[2,3-g][1,4]benzodioxine-8,3′-indol]-2′(1′H)-one] |
| < 50 | 234 to 236 | CN1C(=O)C2(COc3cc4c(cc32)OCCO4)c2c(NC(=O)C3CCC3)cccc21 (stereo not drawn) [Example 16.20, N-(1′-methyl-2′-oxo-1′,2,2′,3-tetrahydrospiro[furo[2,3-g][1,4]benzodioxine-8,3′-indol]-4′-yl)cyclobutanecarboxamide] |
| < 50 | 184 to 186 | CN1C(=O)C2(COc3cc4c(cc32)OCCO4)c2c(NS(C)(=O)=O)cccc21 (stereo not drawn) [Example 16.22, N-(1′-methyl-2′-oxo-1′,2,2′,3-tetrahydrospiro[furo[2,3-g][1,4]benzodioxine-8,3′-indol]-4′-yl)methanesulfonamide] |
| < 50 | 96 to 98 | CN1C(=O)C2(COc3cc4c(cc32)OCCO4)c2c(NC(=O)C3CCCCC3)cccc21 (stereo not drawn) [Example 16.23, N-(1′-methyl-2′-oxo-1′,2,2′,3-tetrahydrospiro[furo[2,3-g][1,4]benzodioxine-8,3′-indol]-4′-yl)cyclohexanecarboxamide] |
| < 50 | 196 to 198 | CN1C(=O)C2(COc3cc4c(cc32)OCCO4)c2c(NC(=O)C3CCCC3)cccc21 (stereo not drawn) [Example 16.24, N-(1′-methyl-2′-oxo-1′,2,2′,3-tetrahydrospiro[furo[2,3-g][1,4]benzodioxine-8,3′-indol]-4′-yl)cyclopentanecarboxamide] |
| < 50 | 182 to 184 | CC(=O)Nc1cccc2c1C1(COc3cc4c(cc31)OCCO4)C(=O)N2C (stereo not drawn) [Example 16.25, N-(1′-methyl-2′-oxo-1′,2,2′,3-tetrahydrospiro[furo[2,3-g][1,4]benzodioxine-8,3′-indol]-4′-yl)acetamide] |
